Source: patent publication US20240190971A1, “USE OF an anti-P-selectin antibody” (NOVARTIS AG, priority 2018, published 2024)

How the values were obtained:
Gata1^low mice = conditions: mouse, in vivo
Method: Given the well described effects of inhibition of the TGF-β receptor 1 kinase on myelofibrosis in mouse models, the effects of the P-selectin inhibitor with those obtained with SB431542 are compared. In fact, contrary to inhibition of TGF-β signaling, inhibition of P-selectin has limited side effects and is therefore preferable to TGF-β inhibitors. […] Gata1^low mice are treated at 5-6 months of age (i.e. in the pre-MF stage) and analyzed at 10-12 months, an age when they are expected to have MF.
Gata1^low mice (8 mice per group) are treated with SB431542 according to the following scheme: • Group 1: Vehicle treated (2% v/v DMSO in H2O) (negative control) • Group 2: Mice receive SB431542 (60 μg/kg/day, cat no S4317-5GM, Sigma-Aldrich, St Louis, MO), as described (Spangrude G J et al, Stem Cells 2016; 34:67-82; Zingariello M et al, Blood 2013; […]
5-6 months old mice are treated daily for 5 days (Monday to Friday), then rested for 2 days and then treated again for 5 days. These treatments continue until the mice will reach 10-12 months of age. At that point they are sacrificed and analyzed for signs of progression to MF as described by Spangrude G J et al, Stem Cells 2016; 34:67-82; Zingariello M et al, Blood 2013; 121:3345-63. […]

[1] = system: broad panel of 26 kinases; conditions: tested at 200 nM; cited from earlier work
JAK3 = JAK3 (Homo sapiens, UniProt P52333); conditions: at clinically relevant concentrations; cited from earlier work
Sequence of JAK3 (P52333 whole entry): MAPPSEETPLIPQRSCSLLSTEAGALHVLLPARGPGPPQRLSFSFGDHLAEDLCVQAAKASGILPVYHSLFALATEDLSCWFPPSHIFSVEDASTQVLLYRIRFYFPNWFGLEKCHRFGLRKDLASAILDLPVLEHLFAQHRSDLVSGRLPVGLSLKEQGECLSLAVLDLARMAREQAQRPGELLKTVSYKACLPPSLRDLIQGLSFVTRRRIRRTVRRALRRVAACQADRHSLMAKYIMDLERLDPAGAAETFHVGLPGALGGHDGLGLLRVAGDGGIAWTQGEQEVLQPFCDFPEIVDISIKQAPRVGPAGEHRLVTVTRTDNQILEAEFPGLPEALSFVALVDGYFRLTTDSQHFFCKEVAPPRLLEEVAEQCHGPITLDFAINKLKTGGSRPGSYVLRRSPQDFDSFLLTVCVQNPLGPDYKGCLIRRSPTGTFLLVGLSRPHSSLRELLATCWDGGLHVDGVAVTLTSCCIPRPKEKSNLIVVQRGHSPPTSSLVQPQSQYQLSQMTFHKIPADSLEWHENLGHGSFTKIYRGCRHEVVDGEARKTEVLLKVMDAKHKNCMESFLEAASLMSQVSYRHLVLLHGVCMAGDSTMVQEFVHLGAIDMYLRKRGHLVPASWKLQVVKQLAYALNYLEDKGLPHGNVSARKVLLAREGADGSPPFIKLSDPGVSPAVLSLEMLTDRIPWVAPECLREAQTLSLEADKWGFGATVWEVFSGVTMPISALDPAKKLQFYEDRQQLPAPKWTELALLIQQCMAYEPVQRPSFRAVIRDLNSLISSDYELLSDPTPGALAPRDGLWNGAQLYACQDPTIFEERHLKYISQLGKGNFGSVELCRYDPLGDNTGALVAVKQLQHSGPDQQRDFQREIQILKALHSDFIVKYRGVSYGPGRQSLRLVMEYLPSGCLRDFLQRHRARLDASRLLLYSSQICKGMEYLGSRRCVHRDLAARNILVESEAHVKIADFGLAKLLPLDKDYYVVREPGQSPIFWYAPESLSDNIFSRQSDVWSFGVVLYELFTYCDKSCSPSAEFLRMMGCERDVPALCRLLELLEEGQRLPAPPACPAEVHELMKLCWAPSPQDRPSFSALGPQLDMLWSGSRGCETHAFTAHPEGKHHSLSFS

P-selectin = target: T1, P-selectin (Homo sapiens, UniProt P16109); conditions: cited from earlier work
T1 sequence (P16109 42-830): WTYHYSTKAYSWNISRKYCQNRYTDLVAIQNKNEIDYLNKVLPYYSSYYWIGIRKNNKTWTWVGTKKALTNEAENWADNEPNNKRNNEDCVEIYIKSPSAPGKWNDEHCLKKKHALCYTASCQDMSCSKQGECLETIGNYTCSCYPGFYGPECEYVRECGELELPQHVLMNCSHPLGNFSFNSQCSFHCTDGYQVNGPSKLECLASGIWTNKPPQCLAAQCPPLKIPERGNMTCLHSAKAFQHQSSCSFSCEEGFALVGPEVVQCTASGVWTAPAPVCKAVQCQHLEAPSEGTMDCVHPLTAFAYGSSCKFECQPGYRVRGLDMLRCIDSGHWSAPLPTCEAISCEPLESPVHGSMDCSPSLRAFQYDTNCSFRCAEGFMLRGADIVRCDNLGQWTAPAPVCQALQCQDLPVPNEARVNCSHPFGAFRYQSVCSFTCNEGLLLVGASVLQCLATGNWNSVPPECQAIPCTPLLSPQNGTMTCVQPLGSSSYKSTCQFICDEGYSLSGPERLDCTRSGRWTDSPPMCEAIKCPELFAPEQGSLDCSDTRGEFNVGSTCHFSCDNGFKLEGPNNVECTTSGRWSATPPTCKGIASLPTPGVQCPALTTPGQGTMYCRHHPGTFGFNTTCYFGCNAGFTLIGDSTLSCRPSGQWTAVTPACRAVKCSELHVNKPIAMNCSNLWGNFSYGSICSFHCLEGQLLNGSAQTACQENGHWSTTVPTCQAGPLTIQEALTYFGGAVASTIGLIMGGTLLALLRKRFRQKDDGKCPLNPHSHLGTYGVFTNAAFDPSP

Q: Which toxicity profile (Gata1^low mice) does the source give for `NC(=O)c1ccc(-c2nc(-c3ccc4c(c3)OCO4)c(-c3ccccn3)[nH]2)cc1` [SB431542] here?
A: poor toxicity profile (increased osteosclerosis)

Q: What does the source list for `N#CC[C@H](C1CCCC1)n1cc(-c2ncnc3[nH]ccc23)cn1` [ruxolitinib, (R)-3-(4-(7H-pyrrolo[2,3-d]pyrimidin-4-yl)-1H-pyrazol-1-yl)-3-cyclopentylpropanenitrile]?
A: inhibition [1]: < 30%; inhibition of JAK3 (JAK3): does not inhibit

B1: crizanlizumab: humanized monoclonal antibody targeted towards P-selectin, blocks its interaction with PSGL-1 (antibody)
heavy: QVQLVQSGAEVKKPGASVKVSCKVSGYTFTSYDINWVRQAPGKGLEWMGWIYPGDGSIKYNEKFKGRVTMTVDKSTDTAYMELSSLRSEDTAVYYCARRGEYGNYEGAMDYWGQGTLVTVSSASTKGPSVFPLAPCSRSTSESTAALGCLVKDYFPEPVTVSWNSGALTSGVHTFPAVLQSSGLYSLSSVVTVTSSNFGTQTYTCNVDHKPSNTKVDKTVERKCCVECPPCPAPPVAGPSVFLFPPKPKDTLMISRTPEVTCVVVDVSHEDPEVQFNWYVDGMEVHNAKTKPREEQFNSTFRVVSVLTVVHQDWLNGKEYKCAVSNKGLPAPIEKTISKTKGQPREPQVYTLPPSREEMTKNQVSLTCLVKGFYPSDIAVEWESNGQPENNYKTTPPMLDSDGSFFLYSKLTVDKSRWQQGNVFSCSVMHEALHNHYTQKSLSLSPGK
light: DIQMTQSPSSLSASVGDRVTITCKASQSVDYDGHSYMNWYQQKPGKAPKLLIYAASNLESGVPSRFSGSGSGTDFTLTISSLQPEDFATYYCQQSDENPLTFGGGTKVEIKRTVAAPSVFIFPPSDEQLKSGTASVVCLLNNFYPREAKVQWKVDNALQSGNSQESVTEQDSKDSTYSLSSTLTLSKADYEKHKVYACEVTHQGLSSPVTKSFNRGEC
Q: Which results are given for B1?
A: blocking of P-selectin interaction with PSGL-1 (P-selectin): blocks its interaction with P-selectin glycoprotein ligand 1 (PSGL-1); dissociation of already formed P-selectin/PSGL-1 complexes (P-selectin): dissociates P-selectin/PSLG-1 complexes that have already formed
